# According to US4775692A, “2,5,6,7-tetranor-4,8-inter-m-phenylene PGI2 derivatives” (Toray Industries, Inc., priority 1986, dated 1988):
# Where two headings read alike, the source gives them in different places.
# Columns and labels:
# gastric acid secretion [1] = experiment: Inhibiting effect of gastric acid secretion, perfused stomach, pentagastrin-stimulated (Ghosh & Schild); assay type: in vivo, male SD rat; conditions: urethane-anesthetized SD rat, pentagastrin 0.05 μg/kg/min, injected through femoral vein; ratio of area index to that of PGE2
# Description: (§1) Inhibiting effect of gastric acid secretion
# A male SD rat was incised in the abdomen under anesthesia by urethane and the lumen of a stomach was perfused with a physiolosical saline solution through a double-cannula inserted into a lumen of the stomach. A pH of a draining gastric acid was monitored using a pH-meter (M. Ghosh, H. Schild, Br. J. Pharmacol. 13, 54 (1958)). The secretion of gastric acid was stimulated by a continuous infusion of the pentagastrin at a rate of 0.05 μg/kg/min. When the pH of gastric acid became stable value of about 4, the compound was injected through a femoral vein. As an index of the inhibiting effect of gastric acid secretion by the compound was calculated from the area surrounded by the curve drawn by the time course of the pH of gastric acid, from the point increase by the injection of the compound and to the point it came back to baseline. The index thus obtained was compared to that of PGE2 and a ratio therebetween was shown in Table 3, as a relative effect of the compound.
# platelet aggregation = experiment: Inhibiting effect of platelet aggregation (ADP-induced, human platelet-rich plasma); assay type: cell-based; conditions: human PRP, compound added one minute before ADP
# Description: Inhibiting effect of platelet aggregation
# The blood taken from a human median cubital vein was centrifuged at 800 rpm for 10 min. and a supernatant thereof was used as a platelet-rich plasma (PRP). An aliquot of PRP thus obtained was put into a small tube, to which […] (ADP) was added to induce platelet aggregation. The extent of aggregation was determined by detecting a change in turbidity of the aliquot by an apparatus for measuring platelet aggregation (Rika-Denki, Tokyo). The compound was added one minute before the addition of ADP. The concentration of the compound which may reduce the platelet aggregation, 50% of the control was designated as IC50.
# gastric acid secretion [2] = experiment: Inhibiting effect of gastric acid secretion, pylorus-ligated rat (Shay); assay type: in vivo; conditions: pylorus ligation, injected into duodenum, 5 hours
# Description: as §1
# Under anesthesia by ether, the abdomen of the rat was incised in its median and a pylorus was ligated with silk thread according to Shay (Gastroenterology 5, 43 (1945)). Simultaneously, the compound was injected into a duodenum of the rat and then the incision was closed.
# Five hours later, the median-incision of the abdomen was again performed and the esophargus was ligated and then the whole stomach was removed.
# The stomach was cut along a greater curvature and the contents thereof was transferred into a graduated centrifuge tube. After centrifugation at 3,000 rpm for 10 min., a volume of a gastric juice was measured and a part of its supernatant was titrated to pH 7 with 0.1N NaOH using a pH-stat (Radio meter).
# The mean dose of the compounds which may reduce the volume of gastric juice (ml) and acidity (mEq/ml) of a group of five animals to 50% of that of the controls were designated respectively as ED50.
# [3] = tested on: blood pressure of the carotid; experiment: Hypotensive effect (carotid blood pressure, anesthetized rat); assay type: in vivo; conditions: chloralose-anesthetized Wistar male rat, injected via catheter connected to femoral artery; read-out: Hypotensive effect ED25 (dose reducing blood pressure by 25 mmHg)
# Description: A catheter was inserted to a carotid of the Wistar male rat under chloralose anesthesia. Another end of the catheter was connected to a polygraph with a pressure-transducer to detect a blood pressure of the carotid. The compound was injected via catheter connected to a femoral artery. The dose of the compound which may reduce the blood pressure in an amount of 25 mmHg was designated as ED25.
# corpus of stomach = experiment: Gastric cytoprotection effect (lesion length / ulcer index after oral 0.2N NaOH); assay type: in vivo; conditions: 1 h, 30 min before oral 0.2N NaOH, lesion measured one hour later, read-out: Gastric cytoprotection effect ED50 (dose reducing the sore to 50% of control)
# Source text: Gastric cytoprotection effect
# Gastric cytoprotection effect was studied according to the method by A. Robert (Gastroenterology, 77(3), 443, (1979)). Thirty min. after oral administration of the compound according to the invention, 0.2N NaOH was orally applied to the animals.
# One hour later, the animals were killed under anesthesia by chloroform. The stomach was removed and fixed in a solution of 5% formalin. After fixation, the stomach was cut along the greater curvature. A total length of the lesion appearing on the corpus of stomach was then measured and served as an ulcer index.
# The dose of the compound which may reduce the sore to 50% of that of the control was designated as ED50.
# The gastric cytoprotection effects of the compounds according to the invention, which is thus represented by ED50, are summarized in Table 1.
# [4] = acidity (mEq/ml) to 50% of controls, read-out: Inhibiting effect of gastric acid secretion ED50, Acidity
# [5] = volume (ml) to 50% of controls, read-out: Inhibiting effect of gastric acid secretion ED50, Volume of the gastric juice
Compound,"Inhibiting effect of gastric acid secretion, Relative effect (PGE2 = 1) (gastric acid secretion [1])",IC50 (platelet aggregation) [ng/mL],ED50 (gastric acid secretion [2]; [4]) [µg/kg],ED50 (gastric acid secretion [2]; [5]) [µg/kg],ED (25 mmHg) [3] [µg/kg],ED50 (corpus of stomach) [µg/kg]
"CCCCCC[C@H](O)/C=C/[C@@H]1[C@H]2c3cccc(OCC(=O)O)c3O[C@H]2C[C@H]1O (relative stereo) [Compound 160, 20a-Homo-2,5,6,7-tetranor-4-oxa-4,8-inter-m-phenylene PGI2]",13,0.41,450,97,0.23,
"CC(C)[C@H](O)/C=C/[C@@H]1[C@H]2c3cccc(OCC(=O)O)c3O[C@H]2C[C@H]1O (relative stereo) [Compound 164, 16-Methyl-2,5,6,7,18,19,20-heptanor-4-oxa-4,8-inter-m-phenylene PGI2]",12,1.35,890,1340,,9.6
"CC(C)(C)[C@H](O)/C=C/[C@@H]1[C@H]2c3cccc(OCC(=O)O)c3O[C@H]2C[C@H]1O (relative stereo) [Compound 168, 16,16-Dimethyl-2,5,6,7,18,19,20-heptanor-4-oxa-4,8-inter-m-phenylene PGI2]",3.5,1.54,,,0.49,30.5
"CCC(C)(C)[C@H](O)/C=C/[C@@H]1[C@H]2c3cccc(OCC(=O)O)c3O[C@H]2C[C@H]1O (relative stereo) [Compound 172, 16,16-Dimethyl-2,5,6,7,19,20-hexanor-4-oxa-4,8-inter-m-phenylene PGI2]",19,2.1,,,0.72,4.6
"CCCC(C)(C)[C@H](O)/C=C/[C@@H]1[C@H]2c3cccc(OCC(=O)O)c3O[C@H]2C[C@H]1O (relative stereo) [Compound 176, 16,16-Dimethyl-2,5,6,7,20-pentanor-4-oxa-4,8-inter-m-phenylene PGI2]",48,,,,0.69,4.1
"CCCCC(C)(C)[C@H](O)/C=C/[C@@H]1[C@H]2c3cccc(OCC(=O)O)c3O[C@H]2C[C@H]1O (relative stereo) [Compound 180, 16,16-Dimethyl-2,5,6,7-tetranor-4-oxa-4,8-inter-m-phenylene PGI2]",72,,1780,510,0.69,2.9
"CCCCCC(C)(C)[C@H](O)/C=C/[C@@H]1[C@H]2c3cccc(OCC(=O)O)c3O[C@H]2C[C@H]1O (relative stereo) [Compound 184, 16,16-Dimethyl-20a-homo-2,5,6,7-tetranor-4-oxa-4,8-inter-m-phenylene PGI2]",85,24,,,0.5,2.3
"CC(C)C(C)(C)[C@H](O)/C=C/[C@@H]1[C@H]2c3cccc(OCC(=O)O)c3O[C@H]2C[C@H]1O (relative stereo) [Compound 196, 16,16,17-Trimethyl-2,5,6,7,19,20-hexanor-4-oxa-4,8 inter-m-phenylene PGI2]",,,,,,150
"CC(C)(C1CCCCC1)[C@H](O)/C=C/[C@@H]1[C@H]2c3cccc(OCC(=O)O)c3O[C@H]2C[C@H]1O (relative stereo) [Compound 248, 16-cyclohexyl-16-methyl-2,5,6,7,18,19,20-heptanor-4-oxa-4,8-inter-m-phenylene PGI2]",13,,,,11,31.1
"CC(C)(CC1CCCCC1)[C@H](O)/C=C/[C@@H]1[C@H]2c3cccc(OCC(=O)O)c3O[C@H]2C[C@H]1O (relative stereo) [Compound 252, 17-cyclohexyl-16,16-dimethyl-2,5,6,7,18,19,20-heptanor-4-oxa-4,8-inter-m-phenylene PGI2]",13,,,,5.6,6.5
"CC(C)(c1ccccc1)[C@H](O)/C=C/[C@@H]1[C@H]2c3cccc(OCC(=O)O)c3O[C@H]2C[C@H]1O (relative stereo) [Compound 293, 16-methyl-16-phenyl-2,5,6,7,18,19,20-heptanor-4-oxa-4,8-inter-m-phenylene PGI2]",4.8,,,,46,
"CC(C)(Cc1ccccc1)[C@H](O)/C=C/[C@@H]1[C@H]2c3cccc(OCC(=O)O)c3O[C@H]2C[C@H]1O (relative stereo) [Compound 297, 16,16-dimethyl-17-phenyl-2,5,6,7,18,19,20-heptanor-4-oxa-4,8-inter-m-phenylene PGI2]",75,13,,,0.34,
"COCC(C)(C)[C@H](O)/C=C/[C@@H]1[C@H]2c3cccc(OCC(=O)O)c3O[C@H]2C[C@H]1O (relative stereo) [Compound 301, 16,16-Dimethyl-2,5,6,7,20-pentanor-4,18-dioxa-4,8-inter-m-phenylene PGI2]",16,,,,0.36,38.5
"O=C(O)COc1cccc2c1O[C@H]1C[C@@H](O)[C@H](/C=C/[C@@H](O)COc3ccccc3)[C@@H]21 (relative stereo) [Compound 313, 16-Phenoxy-2,5,6,7,17,18,19,20-octanor-4-oxa-4,8-inter-m-phenylene PGI2]",53,,310,420,2.1,21.1
"CC(C)(Oc1ccccc1)[C@H](O)/C=C/[C@@H]1[C@H]2c3cccc(OCC(=O)O)c3O[C@H]2C[C@H]1O (relative stereo) [Compound 317, 16-Methyl-16-phenoxy-2,5,6,7,18,19,20-heptanor-4-oxa-4,8-inter-m-phenylene PGI2]",62,,,,1.3,0.49
"CC(C)(Oc1ccccc1)[C@H](O)/C=C/[C@@H]1[C@H]2c3cccc(C#CC(=O)O)c3O[C@H]2C[C@H]1O (relative stereo) [Compound 371, 16-Methyl-16-phenoxy-2,5,6,7,18,19,20-heptanor-3,3,4,4-tetradehydro-4,8-inter-m-phenylene PGI2]",8,,4600,> 10000,2.4,27.9
"CCC[C@H](C)C[C@H](O)/C=C/[C@@H]1[C@H]2c3cccc(OCC(=O)O)c3O[C@H]2C[C@H]1O [Compound 213, 17-(S)-Methyl-2,5,6,7-tetranor-4-oxa-4,8-inter-m-phenylene PGI2]",41,0.075,230,87,0.023,
"CCCC[C@H](C)C[C@H](O)/C=C/[C@@H]1[C@H]2c3cccc(OCC(=O)O)c3O[C@H]2C[C@H]1O [Compound 218, (17S)-17-Methyl-20a-homo-2,5,6,7-tetranor-4-oxa-4,8-inter-m-phenylene PGI2]",,0.18,,,0.045,0.27
"CCCCC[C@H](O)/C=C/[C@H]1[C@H](O)CC(=O)[C@@H]1C/C=C\CCCC(=O)O [PGE2, reference compound]",1,,,,,
